Experiments:
Assay type in all cases: cell-based
Septoria tritici = assay: Microtiterplate test against leaf blotch on wheat caused by Septoria tritici (Septtr), M3 / C4; conditions: comparison test C4, control = 100%
Leptosphaeria nodorum = assay: Microtiterplate test against wheat leaf spots caused by Leptosphaeria nodorum (Leptno), C3; conditions: comparison test C3, control = 100%
Pyricularia oryzae = conditions: comparison test C2, control = 100%
Botrytis cinerea = assay: Microtiterplate test against grey mold Botrytis cinerea (Botrci), M1 / C1; conditions: comparison test C1, control = 100%

Structure (SMILES) | Growth (%) at 2 ppm Septtr (Septoria tritici) | Growth (%) at 2 ppm Leptno (Leptosphaeria nodorum) | Growth (%) at 31 ppm Pyrior (Pyricularia oryzae) | Growth (%) at 31 ppm Botrci (Botrytis cinerea)
Cc1cc(Oc2ccc(Cl)cc2)ccc1C(C)(O)Cn1cncn1 (stereo not drawn) [Compound I-4, 2-[4-(4-chlorophenoxy)-2-methyl-phenyl]-1-(1,2,4-triazol-1-yl)propan-2-ol] | 0% | 0% | 0% | 0%
Cc1cc(Oc2ccc(Cl)cc2)ccc1C(O)(Cn1cncn1)C(F)(F)F (stereo not drawn) [Compound I-5, 2-[4-(4-chlorophenoxy)-2-methyl-phenyl]-1,1,1-trifluoro-3-(1,2,4-triazol-1-yl)propan-2-ol] | 2% | 1% | 0% | 0%
Cc1cc(Oc2ccc(Cl)cc2)ccc1C(O)(CF)Cn1cncn1 (stereo not drawn) [EP 113 640 A2, compound 53, Table I, reference compound] | 40% | 65% | 47% | 63%
